Laboratory results as given in article PMC7490411 (Signal Transduction and Targeted Therapy, 2020).

Legend:
[1] = test system: PHKG2; experiment: KINOMEscan; type: binding; details: 1000 nM
[2] = test system: KIT; experiment: KINOMEscan; type: binding; details: 1000 nM
[3] = test system: YES; experiment: KINOMEscan; type: binding; details: 1000 nM
[4] = test system: MRCKA; experiment: KINOMEscan; type: binding; details: 1000 nM
[5] = test system: FLT3(N841I); experiment: KINOMEscan; type: binding; details: 1000 nM
[6] = test system: MAP4K5; experiment: KINOMEscan; type: binding; details: 1000 nM
[7] = test system: RET(V804L); experiment: KINOMEscan; type: binding; details: 1000 nM
[8] = test system: DDR2; experiment: KINOMEscan; type: binding; details: 1000 nM
[9] = test system: PIP5K2C; experiment: KINOMEscan; type: binding; details: 1000 nM
[10] = test system: PIM3; experiment: KINOMEscan; type: binding; details: 1000 nM
[11] = test system: RIPK5; experiment: KINOMEscan; type: binding; details: 1000 nM
[12] = test system: TRKA; experiment: KINOMEscan; type: binding; details: 1000 nM
[13] = test system: FGFR3(G697C); experiment: KINOMEscan; type: binding; details: 1000 nM
[14] = test system: DCAMKL3; experiment: KINOMEscan; type: binding; details: 1000 nM
[15] = test system: TYK2(JH2domain-pseudokinase); experiment: KINOMEscan; type: binding; details: 1000 nM
[16] = test system: TRPM6; experiment: KINOMEscan; type: binding; details: 1000 nM
[17] = test system: ACVR2A; experiment: KINOMEscan; type: binding; details: 1000 nM
[18] = test system: CDKL2; experiment: KINOMEscan; type: binding; details: 1000 nM
[19] = test system: PFCDPK1(P.falciparum); experiment: KINOMEscan; type: binding; details: 1000 nM
[20] = test system: TRKC; experiment: KINOMEscan; type: binding; details: 1000 nM
[21] = test system: DAPK2; experiment: KINOMEscan; type: binding; details: 1000 nM
[22] = test system: HPK1; experiment: KINOMEscan; type: binding; details: 1000 nM
[23] = test system: PFTK1; experiment: KINOMEscan; type: binding; details: 1000 nM
[24] = test system: TYK2(JH1domain-catalytic); experiment: KINOMEscan; type: binding; details: 1000 nM
[25] = test system: ACVR1B; experiment: KINOMEscan; type: binding; details: 1000 nM
[26] = test system: MKNK1; experiment: KINOMEscan; type: binding; details: 1000 nM
[27] = test system: PCTK1; experiment: KINOMEscan; type: binding; details: 1000 nM
[28] = test system: NDR1; experiment: KINOMEscan; type: binding; details: 1000 nM
[29] = test system: NEK3; experiment: KINOMEscan; type: binding; details: 1000 nM
[30] = target: T1, ITK (Homo sapiens, UniProt Q08881); experiment: KINOMEscan; type: binding; details: 1000 nM, read-out: Percent Control
T1 construct: purchased Invitrogen (Carlsbad, CA, USA)
T1 sequence (Q08881 1-620): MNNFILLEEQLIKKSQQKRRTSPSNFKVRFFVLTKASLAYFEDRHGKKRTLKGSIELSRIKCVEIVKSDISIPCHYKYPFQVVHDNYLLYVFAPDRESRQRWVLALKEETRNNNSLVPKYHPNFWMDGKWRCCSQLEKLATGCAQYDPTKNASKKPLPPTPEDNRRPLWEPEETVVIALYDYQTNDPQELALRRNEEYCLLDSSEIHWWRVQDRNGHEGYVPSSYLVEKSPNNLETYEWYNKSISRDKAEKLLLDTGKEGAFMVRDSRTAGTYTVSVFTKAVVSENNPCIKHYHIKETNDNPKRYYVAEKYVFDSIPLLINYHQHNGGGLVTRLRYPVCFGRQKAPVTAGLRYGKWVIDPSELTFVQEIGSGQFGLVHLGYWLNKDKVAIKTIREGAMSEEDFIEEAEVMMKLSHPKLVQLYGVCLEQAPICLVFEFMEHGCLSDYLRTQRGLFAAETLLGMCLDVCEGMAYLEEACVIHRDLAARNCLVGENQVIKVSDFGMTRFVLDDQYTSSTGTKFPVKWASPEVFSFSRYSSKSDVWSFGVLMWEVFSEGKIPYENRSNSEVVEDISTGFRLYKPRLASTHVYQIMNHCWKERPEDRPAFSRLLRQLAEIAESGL

[31] = test system: CDK4-cyclinD1; experiment: KINOMEscan; type: binding; details: 1000 nM
[32] = test system: SGK2; experiment: KINOMEscan; type: binding; details: 1000 nM
[33] = test system: VEGFR2; experiment: KINOMEscan; type: binding; details: 1000 nM
[34] = test system: AMPK-alpha2; experiment: KINOMEscan; type: binding; details: 1000 nM
[35] = test system: FLT4; experiment: KINOMEscan; type: binding; details: 1000 nM
[36] = test system: HCK; experiment: KINOMEscan; type: binding; details: 1000 nM
[37] = test system: MLCK; experiment: KINOMEscan; type: binding; details: 1000 nM
[38] = test system: FLT3; experiment: KINOMEscan; type: binding; details: 1000 nM
[39] = test system: CSNK1A1L; experiment: KINOMEscan; type: binding; details: 1000 nM
[40] = test system: ERBB4; experiment: KINOMEscan; type: binding; details: 1000 nM
[41] = test system: TAOK1; experiment: KINOMEscan; type: binding; details: 1000 nM
[42] = test system: LOK; experiment: KINOMEscan; type: binding; details: 1000 nM
[43] = test system: NEK4; experiment: KINOMEscan; type: binding; details: 1000 nM
[44] = test system: WNK4; experiment: KINOMEscan; type: binding; details: 1000 nM
[45] = test system: BTK Y223 autophosphorylation; experiment: signaling pathway western blot in TMD8, REC-1 and DOHH2 cells; type: cell-based; details: 4 h
From the text: The cells were then washed in PBS and lysed in cell lysis buffer. BTK, Phospho-BTK(Tyr223), PLCγ2, Phospho-PLCγ2 (Tyr1217), Phospho-AKT […], Phospho-NF-κB p65(Ser536), ERK, Phospho-p44/42MAPK (ERK1/2) (Thr202/Tyr204), AKT and GAPDH antibody (Cell signaling Technology) were used for immunoblotting.

## C=CC(=O)Nc1cc(Nc2cc(-c3cccc(NC(=O)c4cc5c(s4)CCCC5)c3C)cn(C)c2=O)ccc1N1CCN(CC)CC1 [CHMFL-BTK-85]
[1]
  Percent Control: 100%
[2]
  Percent Control: 92%
[3]
  Percent Control: 17%
[4]
  Percent Control: 100%
[5]
  Percent Control: 83%
[6]
  Percent Control: 100%
[7]
  Percent Control: 76%
[8]
  Percent Control: 100%
[9]
  Percent Control: 85%
[10]
  Percent Control: 80%
[11]
  Percent Control: 98%
[12]
  Percent Control: 86%
[13]
  Percent Control: 87%
[14]
  Percent Control: 100%
[15]
  Percent Control: 100%
[16]
  Percent Control: 100%
[17]
  Percent Control: 97%
[18]
  Percent Control: 98%
[19]
  Percent Control: 100%
[20]
  Percent Control: 100%
[21]
  Percent Control: 100%
[22]
  Percent Control: 85%
[23]
  Percent Control: 80%
[24]
  Percent Control: 100%
[25]
  Percent Control: 95%
[26]
  Percent Control: 100%
[27]
  Percent Control: 100%
[28]
  Percent Control: 100%
[29]
  Percent Control: 80%
[30]
  remaining binding at 1 µM: 77%
[31]
  Percent Control: 100%
[32]
  Percent Control: 100%
[33]
  Percent Control: 99%
[34]
  Percent Control: 89%
[35]
  Percent Control: 97%
[36]
  Percent Control: 100%
[37]
  Percent Control: 100%
[38]
  Percent Control: 80%
[39]
  Percent Control: 100%
[40]
  Percent Control: 91%
[41]
  Percent Control: 94%
[42]
  Percent Control: 100%
[43]
  Percent Control: 100%
[44]
  Percent Control: 82%
[45]
  concentration blocking BTK Y223 autophosphorylation: < 10 nM
